30 compounds from patent publication US20130096067A1, “DROSOPHILA TUMOR STEM CELL MODEL AND USES THEREOF” (priority 2011, published 2013) can be followed below.

Where two headings read alike, the source gives them in different places. Peptide text beside a SMILES is read from it. * marks the point of attachment. Cbz = O=C(OCc1ccccc1)*

This assay has as its system Raf-1^gof intestinal tumors.
The mark [1] stands for this setting: ICCB compounds fed in vials to flies with one-day old Raf-1^gof tumors, assessed three days later.
The mark [2] stands for this setting: ICCB compounds fed in vials to flies with one-day old Raf-1^gof tumors, assessed three days later, averaged from multiple wells.
Setting [3] is: screen of 480 ICCB compounds in vials, compounds fed to flies with one-day old Raf-1^gof tumors, assessed three days later, esg-Gal4 luciferase.
[4] abbreviates: screen of 480 ICCB compounds in vials, compounds fed to flies with one-day old Raf-1^gof tumors, assessed three days later, esg-Gal4 luciferase, averaged from multiple wells.
For Fold (luciferase activity relative to DMSO controls) in this document: test concentration or dose not given here.
For Fold (luciferase activity, fold difference relative to DMSO controls) in this document: test concentration or dose not given here.
For Log2 (fold) (luciferase activity, log2 of the fold difference relative to DMSO controls) in this document: test concentration or dose not given here.
For Log2 (fold) of luciferase activity relative to DMSO controls in this document: test concentration or dose not given here.

As to `CCCCC/C=C\C/C=C\C/C=C\CCCCCCC(=O)O` [DIHOMO-GAMMA-LINOLENIC ACID], the “Log2 (fold) of luciferase activity relative to DMSO controls” value under setting [1] stood at 0.323. In addition, the “Fold (luciferase activity relative to DMSO controls)” value under setting [2] stood at 1.251 fold.

For the compound `C=CCNC1=C2C[C@@H](C)C[C@H](OC)[C@H](O)[C@@H](C)/C=C(\C)[C@H](OC(N)=O)[C@@H](OC)/C=C\C=C(/C)C(=O)NC(=CC1=O)C2=O` [17-Allylamino-geldanamycin], the “Log2 (fold) (luciferase activity, log2 of the fold difference relative to DMSO controls)” value under setting [3] is on record as −0.433. For the same compound, the “Fold (luciferase activity, fold difference relative to DMSO controls)” value under setting [4] came out at 0.741.

`CCCCC/C=C\C/C=C\C/C=C\C/C=C\CCCC(=O)O[C@@H](CO)COC(=O)CCCCCCCCCCCCCCCCC` [1-STEAROYL-2-ARACHIDONOYL-GLYCEROL]: under setting [3], the “Log2 (fold) (luciferase activity, log2 of the fold difference relative to DMSO controls)” value is −0.532. For the same compound, the “Fold (luciferase activity, fold difference relative to DMSO controls)” value under setting [4] stood at 0.692.

Consider `CCCCC[C@H](O)/C=C/C=C\C/C=C\C/C=C\CCCC(=O)O` [15(S)-HETE], for which, under setting [3], the “Log2 (fold) (luciferase activity, log2 of the fold difference relative to DMSO controls)” value is −0.309. Moreover, the “Fold (luciferase activity, fold difference relative to DMSO controls)” value under setting [4] came to 0.807.

Take `CNc1ccc2oc(C[C@H]3O[C@@]4(CC[C@H]3C)O[C@H]([C@H](C)C(=O)c3ccc[nH]3)[C@H](C)C[C@H]4C)nc2c1C(=O)O` [A-23187]: the “Log2 (fold) of luciferase activity relative to DMSO controls” value under setting [1] came to 0.176. Further, the “Fold (luciferase activity relative to DMSO controls)” value under setting [2] is listed as 1.130 fold.

In the case of `CCCCCCCCCCCCCCC[C@@H](O)[C@H](CO)NC(=O)CCCCCCC` [C8 DIHYDROCERAMIDE], under setting [3], the “Log2 (fold) (luciferase activity, log2 of the fold difference relative to DMSO controls)” value is −0.423. Under setting [4], the “Fold (luciferase activity, fold difference relative to DMSO controls)” value is listed as 0.746.

As to `CCCCCCCCCCCCCCCC(=O)N[C@H](CN1CCOCC1)[C@H](O)c1ccccc1` (racemic) [DL-PPMP], the “Log2 (fold) of luciferase activity relative to DMSO controls” value under setting [1] was 0.108. Further, the “Fold (luciferase activity relative to DMSO controls)” value under setting [2] turned out to be 1.078 fold.

Consider `CC1=C(/C=C/C(C)=C/C=C/C(C)=C/C(=O)Nc2ccc(O)cc2)C(C)(C)CCC1` [4-HYDROXYPHENYLRETINAMIDE], for which the “Log2 (fold) (luciferase activity, log2 of the fold difference relative to DMSO controls)” value under setting [3] was −0.244. Under setting [4], the “Fold (luciferase activity, fold difference relative to DMSO controls)” value is 0.845.

For the compound `CCCCCC(O)c1cccc(OCc2ccc3ccccc3n2)c1` (stereo not drawn) [REV-5901], under setting [3], the “Log2 (fold) (luciferase activity, log2 of the fold difference relative to DMSO controls)” value is −0.282. Also, the “Fold (luciferase activity, fold difference relative to DMSO controls)” value under setting [4] is listed as 0.822.

`Clc1cccc(Nc2nnc(-c3ccccc3)c3ccccc23)c1` [MY-5445]: the “Log2 (fold) of luciferase activity relative to DMSO controls” value under setting [1] is reported as −0.037. Besides, the “Fold (luciferase activity relative to DMSO controls)” value under setting [2] amounted to 0.975 fold.

Consider `C[C@@H]1C[C@@H]([C@H](O)CC2CC(=O)NC(=O)C2)C(=O)[C@@H](C)C1` [cycloheximide, reference compound], for which the Fold (Table 3 summary of hits, Screen ICCB, luciferase relative to DMSO, fed three consecutive days in vials) is 0.337 fold. Under setting [3], the “Log2 (fold) (luciferase activity, log2 of the fold difference relative to DMSO controls)” value was −1.568. Besides, the “Fold (luciferase activity, fold difference relative to DMSO controls)” value under setting [4] was determined as 0.337.

Regarding `O=C1Nc2ccccc2/C1=C1/Nc2ccccc2/C1=N\O` [Indirubin-3′-monoxime], the “Log2 (fold) of luciferase activity relative to DMSO controls” value under setting [1] is on record as −0.025. For the same compound, under setting [2], the “Fold (luciferase activity relative to DMSO controls)” value was 0.983 fold.

For the compound `COC(=O)C1=C(C)NC(C)=C([N+](=O)[O-])C1c1ccccc1C(F)(F)F` (stereo not drawn) [BAY K-8644], the “Log2 (fold) of luciferase activity relative to DMSO controls” value under setting [1] is listed as −0.027. Further, the “Fold (luciferase activity relative to DMSO controls)” value under setting [2] is on record as 0.982 fold.

For the compound `O=c1[nH]c2ccccc2n1C1CCN(CCCC(c2ccc(F)cc2)c2ccc(F)cc2)CC1` [PIMOZIDE], the “Log2 (fold) (luciferase activity, log2 of the fold difference relative to DMSO controls)” value under setting [3] is given as −0.425. The “Fold (luciferase activity, fold difference relative to DMSO controls)” value under setting [4] turned out to be 0.745.

Turning to `NCCc1c[nH]c2ccc(O)cc12` [serotonin], under setting [1], the “Log2 (fold) of luciferase activity relative to DMSO controls” value is reported as 0.266. For the same compound, the “Fold (luciferase activity relative to DMSO controls)” value under setting [2] came out at 1.203 fold.

Consider `COC1=CC(=O)O[C@@H](/C=C/c2ccccc2)C1` (racemic) [Kavain (+/−)], for which the “Log2 (fold) (luciferase activity, log2 of the fold difference relative to DMSO controls)” value under setting [3] is listed as −0.357. In addition, the “Fold (luciferase activity, fold difference relative to DMSO controls)” value under setting [4] was found to be 0.781.

`O=C[C@@H]1CCCN1C(=O)[C@@H]1CCCN1C(=O)OCc1ccccc1` [Z-prolyl-prolinal] (Cbz-Pro-Pro-aldehyde): under setting [3], the “Log2 (fold) (luciferase activity, log2 of the fold difference relative to DMSO controls)” value is listed as −0.692. Also, the “Fold (luciferase activity, fold difference relative to DMSO controls)” value under setting [4] is on record as 0.619.

For the compound `COc1cc(-c2ccc(=O)[nH]n2)ccc1OC(F)F` [zardaverine], the “Log2 (fold) of luciferase activity relative to DMSO controls” value under setting [1] came out at 0.145. Under setting [2], the “Fold (luciferase activity relative to DMSO controls)” value is reported as 1.106 fold.

Turning to `CC(=O)OCOC(c1ccc2ccccc2c1)P(=O)(OCOC(C)=O)OCOC(C)=O` (stereo not drawn) [HNMPA-(AM)3], the “Log2 (fold) of luciferase activity relative to DMSO controls” value under setting [1] is recorded as −0.049. Under setting [2], the “Fold (luciferase activity relative to DMSO controls)” value was found to be 0.966 fold.

Consider `Cc1ccc(-c2nn(C(C)(C)C)c3ncnc(N)c23)cc1` [PP1], for which, under setting [1], the “Log2 (fold) of luciferase activity relative to DMSO controls” value is given as 0.503. Also, under setting [2], the “Fold (luciferase activity relative to DMSO controls)” value is on record as 1.418 fold.

For the compound `COC(=O)C1=C(C)NC(C)=C(C(=O)OCCCN2CCC(c3ccccc3)(c3ccccc3)CC2)[C@H]1c1cccc([N+](=O)[O-])c1` [NIGULDIPINE], where the note is “in vivo”, the “Fold (luciferase activity, fold difference relative to DMSO controls)” value is on record as 0.812 and the “Log2 (fold) (luciferase activity, log2 of the fold difference relative to DMSO controls)” value is −0.301.

For `CCCCCCCCCC(=O)OCC(CO)OC(=O)CCCCCCCCC` (stereo not drawn) [1,2-DIDECANOYL-GLYCEROL (10:0)], the “Log2 (fold) of luciferase activity relative to DMSO controls” value under setting [1] is listed as 0.310. The “Fold (luciferase activity relative to DMSO controls)” value under setting [2] is listed as 1.240 fold.

On to `Oc1ccc(-c2nc(-c3ccc(F)cc3)c(-c3ccncc3)[nH]2)cc1` [SB 202190], for which the “Log2 (fold) (luciferase activity, log2 of the fold difference relative to DMSO controls)” value under setting [3] was −0.222. Under setting [4], the “Fold (luciferase activity, fold difference relative to DMSO controls)” value amounted to 0.857.

As for `CC[C@@]1(O)C(=O)OCc2c1cc1n(c2=O)Cc2cc3ccccc3nc2-1` [camptothecin, reference compound], the “Log2 (fold)” value (Table 3 summary of hits, Screen ICCB) is on record as −1.619.

In the case of `CCCCC(C)(C)C(O)C=CC1C(O)CC(=O)C1CC=CCCCC(=O)O` (stereo not drawn) [16,16-DIMETHYL-PROSTAGLANDIN E2], under setting [1], the “Log2 (fold) of luciferase activity relative to DMSO controls” value is −0.013. Also, the “Fold (luciferase activity relative to DMSO controls)” value under setting [2] is given as 0.991 fold.

Regarding `CCCCCCCCCCCCCCCCCCOCC(COP(=O)([O-])OCC[N+](C)(C)C)OC` (stereo not drawn) [1-OCTADECYL-2-METHYLGLYCERO-3 PC], the “Log2 (fold) (luciferase activity, log2 of the fold difference relative to DMSO controls)” value under setting [3] is reported as −0.538. The “Fold (luciferase activity, fold difference relative to DMSO controls)” value under setting [4] was determined as 0.689.

Turning to `O=c1c(O)c(-c2ccc(O)c(O)c2)oc2cc(O)cc(O)c12` [quercetin], for the setting “in vivo”, the “Fold (luciferase activity, fold difference relative to DMSO controls)” value was found to be 0.737 and the “Log2 (fold) (luciferase activity, log2 of the fold difference relative to DMSO controls)” value is reported as −0.440.

With `CCCCC/C=C\C/C=C\CCCCCCCC(N)=O` [LINOLEAMIDE], the “Log2 (fold) of luciferase activity relative to DMSO controls” value under setting [1] is given as −0.027. In addition, the “Fold (luciferase activity relative to DMSO controls)” value under setting [2] was 0.981 fold.

Regarding `CCCCC[C@H](O)/C=C/C1=C(C/C=C\CCCC(=O)O)C(=O)CC1` [PROSTAGLANDIN B2], the “Log2 (fold) (luciferase activity, log2 of the fold difference relative to DMSO controls)” value under setting [3] is −0.330. The “Fold (luciferase activity, fold difference relative to DMSO controls)” value under setting [4] was 0.796.

Take `CC(=O)N[C@@H](CSC/C=C(\C)CC/C=C(\C)CC/C=C(\C)CCC=C(C)C)C(=O)O` [AGGC]: under “in vivo”, the “Fold (luciferase activity relative to DMSO controls)” value is 1.001 fold and the “Log2 (fold) of luciferase activity relative to DMSO controls” value turned out to be 0.001.
